Data from patent publication US20250115595A1, “INHIBITORS OF HYPOXIA-INDUCIBLE FACTORS” (The Johns Hopkins University, priority 2021, published 2025).

How the values were obtained:
[1] = system: HIF transcriptional activity; assay: Luciferase reporter assay (FLuc/RLuc) in hypoxic Hep3B-c1 cells; type: cell-based; conditions: Homo sapiens, FLuc/RLuc ratio, 1% O2, 24 hours
Method: The NCI CellMiner database contains expression data on 25,698 mRNAs in 60 human cancer cell lines that were exposed to 21,770 chemical compounds (Reinhold W C, et. al., Cancer Res. 2012; 72(14):3499-3511). The CellMiner database was interrogated for compounds that induced changes in gene expression highly correlated with those induced by acriflavine, but would be structurally unrelated to acriflavine. Compounds that satisfied these criteria were analyzed in Hep3B-c1 cells (Zhang H. et. al., Proc Natl Acad Sci USA. 2008; 105(50):19579-19586), which are stably transfected with: HIF dependent reporter plasmid p2.1, in which firefly luciferase (FLuc) coding sequences are located downstream from a hypoxia response element (HRE) and a basal SV40 promoter; and control reporter pSVR, in which Renilla luciferase (RLuc) coding sequences are downstream of the basal SV40 promoter only (FIG. 1A).
Hep3B-c1 cells (Zhang 2008), which are stably co-transfected with reporter plasmids p2.1, a hypoxia-inducible firefly luciferase reporter gene containing a hypoxia response element (HRE), and pSVR, a constitutively expressed Renilla luciferase reporter gene, were seeded on 24-well plates. Cells were treated with compounds the following day and exposed to 20% or 1% O2 for 24 hours. For transient transfection, cells were seeded, transfected with the listed plasmids and compounds, and exposed to 20% or 1% O2 for 24 hours. FLuc/RLuc ratios were determined using the Dual Luciferase Reporter Assay System (Promega) and the VICTOR Nivo plate reader (PerkinElmer).

[2] = system: Hep3B human HCC tumor xenografts; assay: Hep3B tumor xenograft in nude mice; type: in vivo, mouse
Method: Effects of 32-134D on Hep3B human HCC tumor xenografts. To analyze the effect of HIF inhibitor 32-134D on tumor xenograft growth, Hep3B cells were injected subcutaneously into immunodeficient mice and when tumors reached a volume of 150 mm3 (designated treatment day 1), the mice were treated with vehicle or 32-134D by daily intraperitoneal injection. […] Treatment with 32-134D for 17 days had no effect on mouse body weight (FIG. 6C), appearance or behavior. We treated additional mice with 32-134D and confirmed inhibition of tumor growth without effects on body weight (FIGS. 7A-C).
Protocols were approved by the Johns Hopkins University Animal Care and Use Committee and used in accordance with the NIH Guide for the Care and Use of Laboratory Animals (National Research Council, 2011). Female nude mice (NCI Athymic NCr-nu/nu) and male C57L/J mice were purchased from Charles River and The Jackson Laboratory, respectively. Hep3B (8×106) and Hepa1-6 (1×107) cells were implanted subcutaneously in 6- to 8-week-old mice, and tumor volume was calculated: V=abc×0.52. For Hep3B tumor studies, once tumors reached 100-150 mm3, mice were randomized into groups to receive daily intraperitoneal injection of either vehicle or 32-134D. For Hepa1-6 tumors, mice were randomized to receive treatment once tumors reached a size of 50-100 mm3. Tumors were harvested 4 hours after the last treatment.
Tumors were fixed in 10% formalin in phosphate buffer for 24 hours and placed in PBS the following day for paraffin embedding and sectioning. Anti-CD31 immunohistochemical staining, hematoxylin and eosin counterstaining, and whole slide scanning were performed by NDB Bio […].
Human (EPO, SCF, SDF1a, VEGFA) and mouse (Cxcl1, Cxcl2, Cxcl9, Cxcl10, Il6, Il10, IL22, Vegfa) protein concentrations in tumor homogenates were determined using ELISA kits (Table 4) from Novus Biologicals. Optical density was obtained at 450 nm (corrected for readings at 570 nm) using the VICTOR Nivo plate reader (PerkinElmer). Sample protein concentration was calculated by linear regression from a standard curve.

[3] = system: C57BL/6 mice; assay: Ischemia/reperfusion (I/R) model of vascular permeability; type: in vivo, mouse; conditions: 5 daily IP injections 40 mg/kg
Method: The ability of 32-134D to inhibit vascular permeability in retinal vein occlusion patients was evaluated using the ischemia/reperfusion (I/R) model for vascular permeability in ischemic retinal disease. Transient ischemia was induced in the left eye in 8-to-10-week-old male C57BL/6 mice; the right eye was used as the non-I/R control. Following ischemia, mice were treated with 5 daily IP injections of vehicle control or 32-134D at 40 mg/kg. 24 hours after the fifth IP injection, mice were euthanized, Evans blue perfusion was performed, and retina flat mounts were examined for vascular leakage. […] There was no difference between non-/R (healthy) eyes and I/R eyes treated with 32-134D.
Vascular permeability by Evans blue tracer method: Mice were anesthetized with a mixture of ketamine (50 mg/kg) and xylazine (5 mg/kg) and subjected to Evans blue (Sigma) (50 mg/kg) perfusion by penile vein injection. […] Images were captured by Zeiss fluorescent microscope or confocal microscopy and fluorescence quantified by image J software (NIH). […] Blinded quantification of the number of leaking vessels was performed by manual counting major leakage from capillaries from retinas of each group. Non-capillary artifactual Evans blue or FITC-dextran leakage due to flat mount processing as well as minor leakages were not included in the quantitation. […] For quantification, high magnifications (20×) images were taken. […]

`Brc1ccc2c(-c3csc(-c4c[nH]c5c(Br)cccc45)n3)c[nH]c2c1` [Compound 32-134D, 4-(6-bromo-1H-indol-3-yl)-2-(7-bromo-1H-indol-3-yl)thiazole] was tested, and the IC50 [1] was 2500 nM, the tumor xenograft growth ([2]; 20 mg/kg daily intraperitoneal) was “Partial growth inhibition” and the tumor xenograft growth ([2]; 40 mg/kg daily intraperitoneal) was “maximal growth inhibition”. For the same compound, the “mass of tumors harvested” value ([2]; 40 mg/kg/day) was “significantly decreased”, the tumor xenograft growth ([2]; 80 mg/kg daily intraperitoneal) was “maximal growth inhibition” and the “blood vessel area in tumors (CD31 immunohistochemistry)” value ([2]; mouse, in vivo) was “markedly decreased”. For the same compound, the mouse body weight ([2]; treatment for 17 days) was “no effect”, the “tumor mRNAs encoding SCF, PGF, EPO, CD73, PDL1, VEGFA, SDF1” value ([2]; tumor RNA, RT-qPCR) was “significant decrease” and the “EPO, SCF, SDF1 and VEGFA protein in tumors” value ([2]; whole tumor lysates, ELISA) was “significantly decreased expression”. For the same compound, the “vascular leakage in I/R eyes (Evans blue)” value [3] was “significant reduction in vascular leakage”.
